Source: patent US12220466B2, “Pharmaceutical formulation” (Cutting Edge Technology, LLC, priority 2016, dated 2025)

Experiments:
pocket epithelium [1] = settings: monkey, in vivo; cited from earlier work
pocket epithelium [2] = settings: cited from earlier work
[3] = system: spirochetes and motile rods in subgingival plaques; settings: up to 12 weeks; cited from earlier work
[4] = system: gram-negative anaerobes and spirochetes; settings: cited from earlier work
periodontitis = test: Extensive in vivo administration of viscous tetracycline and 10% carbamide peroxide gel with mechanical debridement (Phase I-III)
Protocol: Each of the subjects had up to 6 or more recorded pocket sites, which can have up to 32 teeth and other parameters of periodontal disease recordings as well as health recordings in their patient records.
During Phase I treatments of periodontitis, a gel solution including 10% carbamide peroxide was applied directly to the periodontal pocket and pocket areas immediately followed by or preceded by 30-600 mg or more of pure topical tetracycline in powder or paste form, also applied directly to the pocket and pocket treatment areas together with the gel solution. The gel solution and the tetracycline were also applied to teeth directly. Tetracycline was added at intervals throughout the treatment. Treatment was performed on pockets from 3 mm up to 10 mm and more.
When pocket tissue was swollen, the 10% carbamide peroxide penetrated the deep pocket under the gum. The 10% carbamide peroxide was in the form of a viscous gel and was applied to the wound site or pocket using a periodontal probe, for example, or using a curet or scaler. For example, one or two drops from a squeeze-bottle applicator was applied to the end of end of a curette tip or scaler or was applied with a periodontal pocket measuring probe. The peroxide gel was also applied under artificial teeth and implants, for example under restorative bridges such as pontic areas, whether with implants or natural teeth. […]

OCl [sodium hypochlorite]
time to nearly complete healing without irreparable damage (pocket epithelium [1]): 11 days | time to reformation of epithelial lining (pocket epithelium [1]): 3 days | time to removal of most of the necrotic layer (pocket epithelium [1]): 16 h | time to restoration of epithelial lining (pocket epithelium [2]; in vivo): 7 days | removal of pocket epithelium (histological) (pocket epithelium [2]; one minute application, neutralization, six curette strokes): complete removal of pocket epithelium with normal healing | percentages of spirochetes and motile rods versus scaling and root planing alone [3]: no difference at any time between therapies | duration of the decrease ([4]; in vivo): 30 to 90 days | number of gram-negative anaerobes and spirochetes ([4]; patients under 18 years, no scaling and root planing): significant decrease

CN(C)[C@@H]1C(O)=C(C(N)=O)C(=O)[C@@]2(O)C(O)=C3C(=O)c4c(O)cccc4[C@@](C)(O)[C@H]3C[C@@H]12 [tetracycline]
in office patient complaints (periodontitis; in vivo): to taste, not pain | allergic reaction with topical use (periodontitis; patient population): No true allergic reaction
